{"source": "patent US5085995A", "about": "“Method for producing saffron stigma-like tissue and method for producing useful components from saffron stigma-like tissue” (Somar Corporation, priority 1989, dated 1992)", "test_system": "stigma of saffran", "test": "Tissue culture of saffron stigma with alanine; visual rating of stigma-like tissue (Example 7)", "format": "cell-based", "settings": "Ki 2 ppm, Linsmaier-Skoog medium, scale 0-10", "text": "The relative amount of the stigma-like tissue was visually determined and rated according to an 11-part divided scale, taking an amount corresponding to the amount of naturally-occurring three stigmata containing saffron pigment as 10, nil as 0, and equally dividing the interval therebetween.\nThe relative color density of the stigma-like tissue was visually determined, and rated according to an 11-part divided scale, taking a density corresponding to the density of a naturally-occurring stigma containing saffron pigment as 10 and colorlessness as 0, and equally dividing the interval therebetween.\nGuaran powder was then added to the medium in a concentration of 0.2% by weight. The medium was sterilized at 120° C. for 20 minutes in an autoclave. The sterilized medium was aloquated into sterile plastic plates having a diameter of 55 mm, followed by cooling to solidify.\nA bud of a saffron flower before opening was harvested, sterilized by soaking in a 0.5 vol% sodium hypochlorite aqueous solution for 10 minutes, and washed with water. The ovary portion of the bud was taken out and cut to pieces of about 8 mm. Each cut piece was seeded on each of the above-prepared solid media.\nAfter 7 weeks of culturing, the tissue cultures were visually observed and evaluated in the same manner as in Example 1.\nA saffron ovary was cultured in the same manner as in Example 3, except for replacing the MS medium with a Linsmaier-Skoog medium to which Ki, NAA and alanine were added in the concentrations shown in Table 11.\nThe procedure of Example 4 was repeated except for replacing the ovary with a stigma of saffran.", "data": [{"molecule": "C[C@H](N)C(=O)O", "note": "(racemic) [Alanine, alanine]", "values": [{"measurement": "Relative Color Density of Stigma-Like Tissue Containing Saffron Pigment", "setting": "alanine 0.1 g/l, NAA 0.1 ppm", "value": 6}, {"measurement": "Relative Production of Stigma-Like Tissue Containing Saffron Pigment", "setting": "alanine 0.1 g/l, NAA 0.1 ppm", "value": 3}, {"measurement": "Relative Color Density of Stigma-Like Tissue Containing Saffron Pigment", "setting": "alanine 0.1 g/l, NAA 1.0 ppm", "value": 8}, {"measurement": "Relative Production of Stigma-Like Tissue Containing Saffron Pigment", "setting": "alanine 0.1 g/l, NAA 1.0 ppm", "value": 4}, {"measurement": "Relative Color Density of Stigma-Like Tissue Containing Saffron Pigment", "setting": "alanine 1.0 g/l, NAA 0.1 ppm", "value": 8}, {"measurement": "Relative Production of Stigma-Like Tissue Containing Saffron Pigment", "setting": "alanine 1.0 g/l, NAA 0.1 ppm", "value": 4}, {"measurement": "Relative Color Density of Stigma-Like Tissue Containing Saffron Pigment", "setting": "alanine 1.0 g/l, NAA 1.0 ppm", "value": 8}, {"measurement": "Relative Production of Stigma-Like Tissue Containing Saffron Pigment", "setting": "alanine 1.0 g/l, NAA 1.0 ppm", "value": 4}, {"measurement": "Relative Color Density of Stigma-Like Tissue Containing Saffron Pigment", "setting": "alanine 5.0 g/l, NAA 0.1 ppm", "value": 7}, {"measurement": "Relative Production of Stigma-Like Tissue Containing Saffron Pigment", "setting": "alanine 5.0 g/l, NAA 0.1 ppm", "value": 4}, {"measurement": "Relative Color Density of Stigma-Like Tissue Containing Saffron Pigment", "setting": "alanine 5.0 g/l, NAA 1.0 ppm", "value": 7}, {"measurement": "Relative Production of Stigma-Like Tissue Containing Saffron Pigment", "setting": "alanine 5.0 g/l, NAA 1.0 ppm", "value": 4}]}]}
